System: DOHH2 and TMD8 DLBCL cells
Experiment: Gene expression profiling (HumanHT-12 v4 BeadChip, limma), ST7612AA1 300 nM 8 hrs vs DMSO
Assay type: cell-based, human
[1] = 300 nM, 8 hours, fold change > 1.5, adjusted p-value < 0.005

## CC(=O)SCCCCC[C@H](NC(=O)[C@H]1CCC(=O)N1)C(=O)Nc1ccccc1 [ST7612AA1]
300 nM 8 hrs vs DMSO
  log ratio YPEL5 (probe ILMN_1711069): 6.99E-01
  log ratio YRDC (ILMN_2061732): -8.81E-01
  log ratio ZBTB42 (ILMN_3239445): 6.62E-01
  log ratio ZDHHC8 (probe ILMN_1789492): 8.85E-01
  log ratio ZFP161 (ILMN_1772522): -5.98E-01
  log ratio ZFX (ILMN_1687484): -6.10E-01
  log ratio ZMAT3 (ILMN_1654262): 5.95E-01
  log ratio ZMYND11 (ILMN_1754234): -1.27E+00
  log ratio ZNF385A (ILMN_1786722): 6.67E-01
  log ratio ZNF532 (ILMN_1731358): -8.77E-01
  log ratio ZNF689 (ILMN_1759008): -8.10E-01
  log ratio ZNF692 (ILMN_1800750): -5.98E-01
  log ratio ZNF775 (probe ILMN_1691702): 7.39E-01
  log ratio ZNF791 (ILMN_1758105): 6.65E-01
  log ratio ZNHIT1 (ILMN_1741491): 6.13E-01
  log ratio ZNRD1 (ILMN_1692486): -8.14E-01
  log ratio ZNRD1 (ILMN_2398587): -8.04E-01
  log ratio ZSCAN16 (ILMN_1809566): 6.84E-01
  log ratio ZZZ3 (ILMN_1653618): -7.87E-01
  log ratio probe ILMN_1862217 (no symbol): 6.82E-01
  log ratio probe ILMN_1865056 (no symbol): 5.95E-01
  log ratio probe ILMN_1880086 (no symbol): 6.47E-01
  log ratio probe ILMN_1886515 (no symbol given): -8.79E-01
[1]
  number of genes down-regulated: 563 genes
  number of genes up-regulated: 674 genes
2000-08-31 ILMN_1776157
  AveExpr.ST7612: 9.23E-01
  log ratio: 9.23E-01
ABHD8 ILMN_1712707
  AveExpr.ST7612: 9.18E-01
  log ratio: 9.18E-01
ACBD7 ILMN_1726388
  AveExpr.ST7612: 1.07E+00
  log ratio: 1.07E+00
ADRB2 ILMN_1695590
  AveExpr.ST7612: 1.02E+00
  log ratio: 1.02E+00
ANG ILMN_1760727
  AveExpr.ST7612: 1.06E+00
  log ratio: 1.06E+00
ANKRD13A ILMN_1689908
  AveExpr.ST7612: 1.03E+00
  log ratio: 1.03E+00
ATP6V0D1 ILMN_1795826
  AveExpr.ST7612: 1.00E+00
  log ratio: 1.00E+00
ATP6V1A ILMN_1711516
  AveExpr.ST7612: 9.54E-01
  log ratio: 9.54E-01
BAG3 ILMN_1659766
  AveExpr.ST7612: 1.06E+00
  log ratio: 1.06E+00
BLVRA ILMN_1691436
  AveExpr.ST7612: 1.07E+00
  log ratio: 1.07E+00
BMP6 ILMN_1747650
  AveExpr.ST7612: 1.06E+00
  log ratio: 1.06E+00
C9orf95 ILMN_1674650
  AveExpr.ST7612: 9.57E-01
  log ratio: 9.57E-01
C16orf93 ILMN_2179726
  AveExpr.ST7612: 9.06E-01
  log ratio: 9.06E-01
CA2 ILMN_1662795
  AveExpr.ST7612: 1.03E+00
  log ratio: 1.03E+00
CBLB ILMN_1685580
  AveExpr.ST7612: 9.03E-01
  log ratio: 9.03E-01
CLEC16A ILMN_1781752
  AveExpr.ST7612: 1.06E+00
  log ratio: 1.06E+00
CPNE3 ILMN_1773576
  AveExpr.ST7612: 9.17E-01
  log ratio: 9.17E-01
CRIP2 ILMN_1694432
  AveExpr.ST7612: 1.09E+00
  log ratio: 1.09E+00
DENND5A ILMN_1785356
  AveExpr.ST7612: 1.07E+00
  log ratio: 1.07E+00
DENND5A ILMN_3245413
  AveExpr.ST7612: 1.02E+00
  log ratio: 1.02E+00
DNMT3B ILMN_2328972
  AveExpr.ST7612: 1.03E+00
  log ratio: 1.03E+00
EFNA1 ILMN_2371055
  AveExpr.ST7612: 1.05E+00
  log ratio: 1.05E+00
EXTL2 ILMN_1797950
  AveExpr.ST7612: 1.08E+00
  log ratio: 1.08E+00
FAM46C ILMN_1713266
  AveExpr.ST7612: 1.07E+00
  log ratio: 1.07E+00
FAM89B ILMN_1804117
  AveExpr.ST7612: 1.06E+00
  log ratio: 1.06E+00
